In US20140348861A1, “SYNTHETIC PEPTIDES AND RANDOM COPOLYMERS FOR THE TREATMENT OF AUTOIMMUNE DISORDERS” (NATIONAL INSTITUTE OF IMMUNOLOGY, priority 2011, published 2014):
Non-standard residues stand in square brackets, D forms with d. Primed or numbered codes have the meaning given here. No end group written: not given here. β3hY = N[C@H](CC(=O)O)Cc1ccc(O)cc1; Kβ″ = beta-amino acid residue (K); β3hK = NCCCC[C@H](N)CC(=O)O; β3hA = C[C@H](N)CC(=O)O; Yβ = β-tyrosine

Test system: SJL/J mice exhibiting MBP (85-109) induced relapsing remitting form of EAE
Assay: Therapeutic activity in MBP (85-109) induced relapsing remitting EAE, treatment from day 11
Assay type: in vivo
Conditions: SJL/J mice, RR EAE; for Therapeutic activity in comparison to GA (Therapeutic activity (Analogs) − Therapeutic activity GA) / Therapeutic activity in comparison to J5 (Therapeutic activity (Analogs) − Therapeutic activity (J5)): 0.1 mg daily for two weeks; for Therapeutic activity = % reduction in cumulative clinical disability score: synthetic peptides, 0.1 mg daily for two weeks from day 11 post-immunization
Procedure: SJL/J and C57BL6/J mice procured from Jackson's laboratory (Bar Harbor, Me.) were maintained under standard housing conditions in the central animal facility at NII as per institutional ethical committee guidelines. 8-10 week old female SJL/J mice were used throughout the study.
To induce RR EAE or chronic progressive EAE, SJL/J or C57BL6/J mice were immunized subcutaneously with 0.2 mg of MBP (85-109) or 0.1 mg MOG (35-55) emulsified in CFA and 200 ng of pertussis toxin was injected intraperitoneally on day 0 and day 2 so as to permeablize the blood brain barrier. All the animals in various experimental groups were scored daily for clinical disability on a scale of 0-6 where 0=no neurological symptoms, 1=limp tail, 2=weakness of hind limbs or ataxia, 3=incomplete paralysis of hind limbs, 4=complete paralysis of hind limbs, 5=complete paralysis of all four limbs, 6=dead. Diseased animals were provided easy access to food and water.
GA, J91, J92, S101, S102, S103 for two weeks and scored for clinical disability.

Substance	Therapeutic activity in comparison to GA (Therapeutic activity (Analogs) − Therapeutic activity GA) [%]	Therapeutic activity in comparison to J5 (Therapeutic activity (Analogs) − Therapeutic activity (J5)) [%]	Therapeutic activity = % reduction in cumulative clinical disability score [%]
KVEAYKAAAβAβ [Analog S56]	−0.4278	−4.385	30.91
KVEAYKAAAβ^3Aβ^3 (KVEAYKAA[β3hA][β3hA]) [Analog S18]	−3.957	−7.914	27.38
KVEAYKAAβAβAβ [Analog S57]	8.021	4.064	39.36
KVEAYKAAβ^3Aβ^3Aβ^3 (KVEAYKA[β3hA][β3hA][β3hA]) [Analog S19]	5.989	2.032	37.3262
KVEAYKAβAβAβAβ [Analog S58]	11.02	7.059	42.35
KVEAYKAβ^3Aβ^3Aβ^3Aβ^3 (KVEAYK[β3hA][β3hA][β3hA][β3hA]) [Analog S20]	16.9	12.94	48.24
KVEAYKβ [Analog S66]	−9.412	−13.369	21.93
KVEAYKβAβAβAβAβ [Analog S59]	12.94	8.984	44.28
KVEAYKβ^3 (KVEAY[β3hK]) [Analog S28]	−7.38	−11.3369	23.96
KVEAYKβ^3Aβ^3Aβ^3Aβ^3Aβ^3 [Analog S21]	17.97	14.01	49.3
KVEAYβKβ (KVEA[Yβ][Kβ″]) [Analog S67]	−12.9412	−16.8984	18.4
KVEAYβKβAβAβAβAβ [Analog S60]	10.05	6.096	41.39
KVEAYβ^3Kβ^3 (KVEA[β3hY][β3hK]) [Analog S29]	−1.07	−5.027	30.27
KVEAYβ^3Kβ^3Aβ^3Aβ^3Aβ^3Aβ^3 [Analog S22]	17.43	13.48	48.77
KVEAβYβKβ [Analog S68]	−5.134	−9.091	26.2
KVEAβYβKβAβAβAβAβ [Analog S61]	8.6631	4.706	40
KVEAβ^3Yβ^3Kβ^3 [Analog S30]	0.8556	−3.102	32.19
KVEAβ^3Yβ^3Kβ^3Aβ^3Aβ^3Aβ^3Aβ^3 [Analog S23]	22.14	18.18	53.48
KVEβAβYβKβ [Analog S69]	−8.877	−12.8342	22.46
KVEβAβYβKβAβAβAβAβ [Analog S62]	5.455	1.497	36.79
KVEβ^3Aβ^3Yβ^3Kβ^3 [Analog S31]	−1.818	−5.7754	29.52
KVEβ^3Aβ^3Yβ^3Kβ^3Aβ^3Aβ^3Aβ^3Aβ^3 [Analog S24]	20.32	16.36	51.66
KVβEβAβYβKβ [Analog S70]	−16.8984	−20.8556	14.4385
KVβEβAβYβKβAβAβAβAβ [Analog S63]	−9.305	−13.262	22.03
KVβ^3Eβ^3Aβ^3Yβ^3Kβ^3 [Analog S32]	11.23	7.273	42.57
KVβ^3Eβ^3Aβ^3Yβ^3Kβ^3Aβ^3Aβ^3Aβ^3Aβ^3 [Analog S25]	22.25	18.29	53.58
KβVβEAYβKβ [Analog S72]	−15.9358	−19.8931	15.4
KβVβEAYβKβAβAβAβAβ [Analog S65]	−5.989	−9.947	25.35
KβVβEβAβYβKβ [Analog S71]	−14.9519	−18.9091	16.39
